Experiment [1] has as its system H9 cells. The experiment in a line: MGE derivation from differentiating hPSCs (Nkx2.1 immunocytochemistry, cell counting, FACS). It is filed as cell-based, human. Conditions: for MGE specification: treatment starting at day 0, flow cytometry; for Nkx2.2+/total cells: n=4. The procedure: Human PSC cells (H9 ESCs (WA09, WiCell, Madison, WI, passage 45-55), H7 ESC (WA07, WiCell, passage 41-51) and iPSC2497 (a kind gift from Dr. Fred Gage, [14], passage 30-40) were maintained on Matrigel (BD, San Hose, CA) in mTeSR media (Invitrogen, Calsbad, CA) with 10 ng/ml bFGF (Peprotech, Rocky Hill, NJ), and passaged using Dispase (Stem Cell Technologies, Vancouver, BC, Canada). For differentiation, PSCs were trypsinized and grown as floating aggregates in low adherent flasks in KSR media (20% knockout serum replacement, DMEM, 2 mM L-glutamine and 10 μM β-mercaptoethanol (all from Invitrogen)). Rock inhibitor (Y-27632, 10 μM, Tocris, Bristol, United Kingdom) was added on the first day of differentiation. After two weeks of floating culture, cells were transferred to polyornithine (PLO; […]; Sigma, St. Louis, MO) and fibronectin (FN; […]; Sigma, St. Louis, MO) coated surfaces. For neural induction, cells were treated with LDN193189 (100 nM, Stemgent, Cambridge, MA) from d0 to d14 and with SB431542 (10 μM, Tocris) from d0 to d7 [25]. For MGE induction, cells were treated with IWP2 (5 μM, EMD Millipore) from d0 to d7, with SAG (0.1 µM, EMD Millipore) from d0 to d21, and with FGF8 (100 ng/ml, Peprotech) from d8 to d21. After 3 weeks of differentiation, cells were trypsinized and droplets of 10,000 cells/μl transferred to PLO/FN-coated coverslips in differentiation media (N3 media with 10 ng/ml GDNF (Peprotech), 10 ng/ml BDNF (Peprotech) and 2.5 μM DAPT (Tocris)) for further differentiation and maturation.
Differentiated cells were trypsinized and fixed in Fix/Perm solution (BD) for 30 min., and incubated with blocking buffer (PBS with 0.1 mg/ml BSA and 0.1% Saponin (both from Sigma, St. Louis, MO)) for 10 minutes. Blocked cells were incubated with primary antibody (anti-Nkx2.1; Epitomics) in blocking buffer for 30 minutes. After washing with PBS, Alexa 647-conjugated secondary antibodies (Invitrogen) were added (1:1000) and incubated for another 15 minutes. Some samples were incubated only with secondary antibody as control. After washing with PBS, cells were suspended in blocking buffer and analyzed using a FACSAria (BD Biosciences, San Jose, CA). Flowjo (Tree Star, Ashland, Or) software was used to analyze raw data. Ten thousand cells were used per analysis.
For immunofluorescence staining, fixed cells or tissue sections were incubated with blocking buffer (PBS, 10% normal donkey serum (NDS)) containing 0.1% Triton for 10 minutes. Cells were then incubated overnight at 4° C. with primary antibodies diluted in PBS containing 2% NDS. The primary antibody list can be found in table 1. After rinsing with PBS, samples were incubated with fluorescent dye-labeled secondary antibodies (Alexa 488- Alexa 594- or Alexa 647-labeled IgG; Invitrogen, Carlsbad, CA) in PBS containing 2% NDS for 30 minutes at room temperature. After rinsing with PBS, Hoechst 33342 ([…]) was used for counterstaining, and coverslips/tissues sections were mounted onto slides in Mowiol 4-88 (Calbiochem, Gibbstown, NJ). Confocal analysis was performed using an Olympus DSU Spinning Disc Confocal on an IX81 inverted microscope (Center Valley, PA).
Cells were counted using the StereoInvestigator image capture equipment and software (Microbright Field, Williston, VT). For counting of cells on cover slips, an optical fractionator probe was used with a 500 μm×500 µm grid size and 100 μm×[…] counting frame (>40 counting sites with >1000 total cells counted per sample) at 40× magnification. Coverslips from 3-4 independent differentiations were used for analysis. For statistical analysis, we performed t-test (alpha=0.05) comparing control vs. sample using Prism6 software (Graph Pad).
A general note: A flow cytometer gives signals particle by particle.

Experiment [2] concerns voltage-gated Na+ channels. It is filed as cell-based, human.
Experiment [3] deals with differentiating ES cells. The experiment in a line: Real time PCR analysis of differentiating ES cells. It is filed as cell-based, human. The procedure:
Total RNA was prepared using Trizol (Invitrogen) and Purelink RNA mini kit (Invitrogen). cDNA from total RNA was generated using the SuperScript™ II RT (Invitrogen, Carlsbad, CA) and oligo (dT) primers. For quantitative analysis of the expression level of mRNAs, real-time PCR analyses were performed using the DNA engine Opticon™ (MJ Research, Waltham, MA) and SYBR green I (Molecular Probes, OR). Primers were designed using the MacVector software (Oxford Molecular Ltd.: primers sequences are available upon request). PCR were performed in 25 μl containing […] of each primer, 0.5×SYBR Green I (Molecular Probes), and 1 μl of cDNA. Fifty cycles consisting of 95° C. for 30 sec., 55° C. for 30 sec., 72° C. for 30 sec., and 79° C. for 5 sec. were performed. Primer dimers were melted at 79° C. before measuring the fluorescent signals after each cycle. The mRNA expression level for each gene was normalized against that of the GAPDH gene. The relative values were calculated by setting the normalized value of control as 1.
On the technique in general: Quantitative PCR measures a nucleic acid by following its amplification.

For experiment [4], the system named is H9 cells. The experiment in a line: MGE derivation from differentiating hPSCs (Nkx2.1 immunocytochemistry, cell counting, FACS). It is filed as cell-based, human.
The subject of experiment [5] is AMPA/kainate-type glutamate receptors. The experiment in a line: NBQX inhibition of sEPSC in grafted cells. On the set-up: species or system human. Conditions: 10 μM NBQX.
Where [6] appears, read: SHH activation during early differentiation.

Entries after “also recorded” stand apart in the source; their conditions may differ.

As to `Cc1ccc2nc(NC(=O)CSc3nc4c(c(=O)n3-c3ccccc3)SCC4)sc2c1` [IWP2], the MGE specification in experiment [1] came out at 5.16%.
`NC1=N[C@H](O)[C@H]2[C@H]3O[C@]4(O)O[C@@H]([C@@H](O)[C@@]2(N1)[C@@H]4O)[C@]3(O)CO` [tetrodotoxin]: in experiment [2], the “block of transient (rapidly desensitizing) inward currents” value is recorded as “completely blocked; also recorded: selectively blocked transient component”.
In the case of `CNC1CCC(N(Cc2cccc(-c3ccncc3)c2)C(=O)c2sc3ccccc3c2Cl)CC1` (stereo not drawn) [SAG], the “expression of isl1” value in experiment [1] (10 nM vs 100 nM SAG) is “no significant difference”. Further, in experiment [1] (100 nM SAG, H9 cells, 25 days of differentiation), the “induction of the MGE phenotype” value was “significantly higher induction of the MGE phenotype”. This molecule also came in with an MGE specification in experiment [1] of 0.79%. Moreover, in experiment [3] (setting [6]), the Gli1 expression result is given as “strong induction of Gli1” and the Gli3 expression entry is “strong Gli3 expression reduction”. For the same molecule, the FGF15/19 expression result in experiment [3] (early SHH activation) is “induced the expression of FGF15/19”. For the same molecule, the MGE specification entry in experiment [4] (10 nM SAG, H9 cells, 25 days of differentiation) is listed as “modest increase in MGE specification”. For the same molecule, the “Nkx2.1 level / MGE derivation” value in experiment [4] (SAG treatment in the 3rd week of differentiation) was “increased Nkx2.1 level mildly but significantly; also recorded: further enhanced MGE derivation”.
On to “FGF19: exogenously applied FGF19, caudalizing signal”, for which, in experiment [1], the “Nkx2.2+/total cells” value was 4.19+0.77%. Moreover, the FGF8 expression entry in experiment [3] (exogenous application of FGF19) was “no effect on FGF8 expression; also recorded: does not affect FGF8 expression”. In addition, the CGE identity entry in experiment [4] (FGF19 applied exogenously instead of FGF8, 3 weeks of differentiation) is reported as “most of the cells taking up CGE identity; also recorded: induces CGE phenotype”.
Turning to `NS(=O)(=O)c1cccc2c1c([N+](=O)[O-])cc1nc(O)c(O)nc12` [NBQX], in experiment [5], the “inhibition of spontaneous excitatory postsynaptic currents” value is reported as “inhibited sEPSC completely”.

B1: FGF8: fibroblast growth factor 8 protein (SEQ ID NO: 1), activator of FGF8 signaling (protein, listed as Homo sapiens)
chain: MAEDGDPFAKLIVETDTFGSRVRVRGAETGLYICMNKKGKLIAKSNGKGKDCVFTEIVLENNYTALQNAKYEGWYMAFTRKGRPRKGSKTRQHQREVHFMKRLPRGHHTTEQSLRFEFLNYPPFTRSLRGSQRTWAPEPR
Turning to B1, the “MGE cells by FACS” value in experiment [1] (early SHH activation with exogenous FGF8, multiple hPSCs) is recorded as greater than 80%. Further, in experiment [1], the “Nkx2.2+/total cells” value was 0.61+0.38%. Moreover, the “MGE differentiation vs CGE differentiation” value in experiment [1] (treatment in the 2nd and/or 3rd week of differentiation) is given as “significantly increased MGE differentiation at the expense of CGE differentiation; also recorded: further induced MGE phenotype at the expense of the CGE phenotype; also recorded: induces MGE phenotype”. Moreover, in experiment [3] (exogenous application of FGF8), the FGF19 expression result is “increase FGF19 expression mildly but significantly; also recorded: increases FGF19 expression”.

The values above are taken from patent US12241084B2, “Methods for efficient generation of GABAergic interneurons from pluripotent stem cells” (The McLean Hospital Corporation, priority 2013, dated 2025).
